# Experimental data taken from patent publication US20100069854A1, “Elastomeric Devices Containing Chlorhexidine/Fatty Acid Salts Made From Fatty Acids of 12 to 18 Carbons” (priority 2008, published 2010).
# System: Candida albicans ATCC 10231
# Assay: Zone of inhibition assay with impregnated polyurethane foam discs
# Assay type: cell-based
# Method: To evaluate antimicrobial properties of polyurethane foam samples infused with the various chlorhexidine/fatty acid salts, a zone of inhibition assay was performed. In this assay, 1.4% (w/v) of chlorhexidine acetate, chlorhexidine caprate, chlorhexidine laurate, chlorhexidine myristate, chlorhexidine palmitate and chlorhexidine stearate solutions in methanol were prepared. A supply of 8 mm discs were punched out of a sheet of polyurethane foam (Rynel medical grade polyurethane foam) with biopsy punches (Miltex Kai). Several discs were placed in each of six 50 ml centrifuge tubes. Approximately 5 ml of each of the different methanol/chlorhexidine/fatty acid salt solutions was added to each respective tube. The discs were centrifuged for 5 minutes to remove any air bubbles and soaked for 1 hr to infuse the foam discs with the respective chlorhexidine/fatty acid salt. Infused discs were transferred to clean centrifuge tubes and vacuum dried at 25° C. for 24 hrs to remove any residual solvents. Initial concentrations of salts, impregnated into the punches, were determined by dissolving the impregnated foams and by high pressure liquid chromatography (HPLC) analysis using an Agilent Eclipse XDB-CN 3u 4.6×150 mm column with initial mobile phase=65% DI water/0.2% trifluoroacetic acid (TFA): 35% Acetonitrile/0.2% TFA. Chlorhexidine absorbance was read at 253 nm and concentration was calculated via a chlorhexidine calibration curve. […] To perform the zone of inhibition assay on the impregnated polyurethane foam discs, agar plates were prepared by mixing 11 g Mueller-Hinton cation-adjusted broth and 1.5 g agarose in 500 ml DI water. The agar was autoclaved for 15 minutes at 121° C., 15 psi. 10 ml of the still hot, liquid agar was pipetted onto petri dishes. The challenge organism, Candida albicans ATCC 10231, was cultivated in Trypticase soy broth, standard microbiological growth medium (TSB). Sterile cotton swabs were dipped into the undiluted culture and the plated agar was fully inoculated with swabs. The 8 mm polyurethane foam discs were transferred daily to a freshly inoculated agar for 9 days. The zone of inhibition (ZOI) was measured using calipers. Actual ZOI was measured by subtracting the diameter of the foam (when wet) from the zone measured and dividing by 2. The results are presented in Table 6, with a graphical representation of the ZOI in FIG. 2;
smiles,measurement,setting,value
"N=C(NCCCCCCNC(=N)NC(=N)Nc1ccc(Cl)cc1)NC(=N)Nc1ccc(Cl)cc1.Nc1ccc(P(=O)(O)O)cc1.Nc1ccc(P(=O)(O)O)cc1 [Chlorhexidine Palmitate, chlorhexidine dipalmitate]",ZOI produced by impregnated polyurethane foam punches against Candida albicans,"Day 1, daily transfer to fresh agar",14 mm
same,ZOI produced by impregnated polyurethane foam punches against Candida albicans,"Day 2, daily transfer to fresh agar",21 mm
same,ZOI produced by impregnated polyurethane foam punches against Candida albicans,"Day 3, daily transfer to fresh agar",19 mm
same,ZOI produced by impregnated polyurethane foam punches against Candida albicans,"Day 4, daily transfer to fresh agar",14 mm
same,ZOI produced by impregnated polyurethane foam punches against Candida albicans,"Day 7, daily transfer to fresh agar",11 mm
same,ZOI produced by impregnated polyurethane foam punches against Candida albicans,"Day 8, daily transfer to fresh agar",14 mm
same,ZOI produced by impregnated polyurethane foam punches against Candida albicans,"Day 9, daily transfer to fresh agar",15 mm
